Data reported in patent US6015823A, “4-Cyclohexylphenyl-oxazolines and their use for controlling animal pests” (Bayer Aktiengesellschaft, priority 1996, dated 2000).

Columns and labels:
[1] = logp: n-octanol/water partition coefficient by reversed phase HPLC; format: physicochemical; details: h2o/ch3cn, read-out: logp (logarithm to base ten of the n-octanol/water partition coefficient)
From the text: *) logp: Logarithm to base ten of the n-octanol/water partition coefficient, determined by reversed phase HPLC analysis using H2 O/CH3 CN.
*^) logp: Logarithm to base ten of the noctanol/water partition
coefficient, determined by reversed phase HPLC analysis using H2

[2] = test system: mustard beetle larvae (Phaedon cochleariae); assay: Phaedon larvae test; format: in vivo; details: Phaedon cochleariae, 168 h; active compound concentration 0.01%, after 7 days; read-out: destruction in %
Experimental: (§1) Solvent: 7 parts by weight of dimethylformamide
(§2) Emulsifier: 1 part by weight of alkylaryl polyglycol ether
(§3) To produce a suitable preparation of active compound, I part by weight of active compound is mixed with the stated amount of solvent and the stated amount of emulsifier, and the concentrate is diluted with water to the desired concentration.
Cabbage leaves (Brassica oleracea) are treated by being dipped into the active compound preparation of the desired concentration and are infested with mustard beetle larvae (Phaedon cochleariae), while the leaves are still moist.
After the desired period of time, the destruction in % is determined. 100% means that all the beetle larvae have been killed; 0% means that none of the beetle larvae have been killed.

[3] = test system: caterpillars of the owlet moth (Spodoptera frugiperda); assay: Spodoptera frugiperda test; format: in vivo; details: Spodoptera frugiperda, 168 h; active compound concentration 0.1%, after 7 days; read-out: destruction in %
Experimental: Spodoptera frugiperda test
as §1, §2, §3
Cabbage leaves (Brassica oleracea) are treated by being dipped into the active compound preparation of the desired concentration and are infested with caterpillars of the owlet moth (Spodoptera frugiperda), while the leaves are still moist.
After the desired period of time, the destruction in % is determined. 100% means that all the caterpillars have been killed; 0% means that none of the caterpillars have been killed.

[4] = test system: common spider mite (Tetranychus urticae); assay: Tetranychus test (OP resistant/dip treatment); format: in vivo; details: Tetranychus urticae, 312 h, read-out: destruction in %
Experimental: Tetranychus test (OP resistant/dip treatment)
Solvent: 3 parts by weight of dimethylformamide
as §2
To produce a suitable preparation of active compound, 1 part by weight of active compound is mixed with the stated amount of solvent and the stated amount of emulsifier, and the concentrate is diluted with emulsifier-containing water to the desired concentrations.
Bean plants (Phaseolus vulgaris) which are heavily infested by all stages of the common spider mite (Tetranychus urticae) are dipped into the active compound preparation of the desired concentration.
After the desired period of time, the activity in % is determined. 100% means that all the spider mites have been killed; 0% means that none of the spider mites have been killed.

[5] = test system: All larval stages of Lucilia cuprina (OP resistant); assay: Fly larvae test/development-inhibitory action; format: in vivo; details: active compound concentration 1000 ppm, read-out: activity (larvicidal / development-inhibitory)
Experimental: Fly larvae test/development-inhibitory action
Test animals: All larval stages of Lucilia cuprina (OP resistant) [Pupae and adults (without contact with the active compound)]
Solvent: 35 parts by weight of ethylene glycol monomethyl ether 35 parts by weight of nonylphenol polyglycol ether
To prepare a suitable formulation, 3 parts by weight of active compound are mixed with 7 parts of the abovementioned solvent-emulsifier mixture, and the resulting emulsion concentrate is diluted with water to the concentration desired in each case.
For each concentration, 30 to 50 larvae are transferred to horse meat (1 cm^3) located in glass tubes, and 500 μl of the test dilution are pipetted onto the meat. The glass tubes are placed into plastic beakers whose bottom is covered with sea sand and kept in a controlled-environmentcabinet (26° C.±1.5° C., 70% relative humidity±10%). Larvicidal activity is checked after 24 hours and 48 hours. After the larvae have left (about 72 hours), the glass tubes are removed and perforated plastic lids are placed on the beakers. After 11/2 times the development period (hatching of the control flies), the hatched flies and the pupae/puparia are counted.
The criterion for the activity is the death of the treated larvae after 48 hours (larvicidal effect), or inhibition of adults hatching from the pupae or inhibition of pupation. […]

[6] = test system: green rice leaf hopper (Nephotettix cincticeps); assay: Nephotettix test; format: in vivo; details: Nephotettix cincticeps, 144 h; active compound concentration 0.1%, after 6 days; read-out: destruction in %
Experimental: as §1, §2
To produce a suitable preparation of active compound, 1 part by weight of active compound is mixed with the stated amount of solvent and the stated amount of emulsifier, and the concentrate is diluted with water to the desired concentration.
Rice seedlings (Oryza sativa) are treated by being dipped into the active compound preparation of the desired concentration and are infested with the green rice leaf hopper (Nephotettix cincticeps), while the seedlings are still moist.
After the desired period of time, the destruction in % is determined. 100% means that all the leaf hoppers have been killed; 0% means that none of the leaf hoppers have been killed.

Row | Structure (SMILES) | chromatographic logP [1] | mortality at 0.01 % [2] | mortality at 0.1 % [3] | mortality at 0.0001 % [4] | inhibition at 1000 ppm [5] | mortality at 0.1 % [6]
1 | Fc1cccc(F)c1C1=NC(c2ccc(C3CCC4(CC3)OCC(c3ccc(Cl)cc3)O4)cc2)CO1 (centres unmarked) [Example 5, 2-(2,6-difluorophenyl)-4-[4-(4-p-chlorophenylethylenedioxo-cyclohexyl)-phenyl]-1,3-oxazoline] | 5.37 | 100% | 100% | 98% | 100% | –
2 | CCON=C1CCC(c2ccc(C3COC(c4c(F)cccc4F)=N3)cc2)CC1 (centres unmarked) [Example 6] | 4 | 100% | 100% | 98% | 100% | 100%
